{"source": "patent US20020141964A1", "about": "“Composition for arresting the flow of blood and method” (priority 2001, published 2002)", "origin": "cited, not measured here", "tested_on": "blood flowing from an open wound", "details": "shown in the earlier U.S. patent of the co-inventors"}
{"substance": "potassium ferrate", "values": [{"measurement": "accelerated clotting of blood flowing from an open wound", "result": "effectively accomplishes the accelerated clotting of blood"}]}
